The test system of the assay is human keratinocytes. The assay can be described thus: Protection of cells against UV-B rays (cell DNA, LDH and PGE2 release). The format is cell-based. Particulars: 0.03 % w/v, UVB 50 mJ/cm^2, control with UVB = 100%, without UVB = 0%.

1 molecule from patent US20060165631A1, “Use of oligoglucosamines in cosmetic or dermatological preparations” (priority 2003, published 2006) can be followed below.

Procedure: The influence of UVB rays on keratinocytes was determined in vitro through the release of cytoplasmatic enzymes, such as LDH (lactate dehydrogenase) for example, which runs parallel to the cell damage and the formation of PGE2. To carry out the test, a keratinocyte culture was mixed with foetal calf serum and inoculated with the test substances after storage at 37° C. in an atmosphere containing 5% CO2. After incubation for 36 h at 37° C. and a CO2 level of 5% by vol., the nutrient medium was replaced by an electrolyte solution and the fibroblasts were damaged with a particular dose of UVB (50 mJ/cm^2; lamp: Duke GL40E). The quantity of keratinocytes was determined after trypsination via a cell counter while the LDH concentration was enzymatically determined.

Turning to `CC(=O)Oc1ccccc1C(=O)O` [acetylsalicylic acid], the LDH released is listed as 0% and the PGE2 released came to 0%.
